Data on 2 compounds can be found in patent US5759577A, “Controlled release of steroids from sugar coatings” (American Home Products Corporation, priority 1996, dated 1998).

Series [1] can be described thus: in vitro dissolution of medrogestone, USP XX <711> Apparatus 2, 50 r.p.m. It is filed as physicochemical. Conditions: sugar coat containing 0.4% microcrystalline cellulose versus conventional tablet. Here is the method: A sugar coating containing 5 mg of medrogestone in a matrix of sucrose with 0.4% microcrystalline cellulose and 0.5% polyvinyl pyrrolidone was applied to a sealed and sugar-coated tablet core.

Series [2] is described as follows: in vitro dissolution of steroid, Method A (USP XX <711> Apparatus 2, 50 rpm). As to conditions: Examples 1-3, Methods A, B and C, no microcrystalline cellulose. The format is physicochemical. The text has this: CV represents the coefficient of variation between these trials expressed as a percentage.

Each structure is given as a SMILES string.

For `CC(=O)[C@@]1(C)CC[C@H]2[C@@H]3C=C(C)C4=CC(=O)CC[C@]4(C)[C@H]3CC[C@@]21C` [medrogestone], in series [1], the “dissolution of medrogestone (in words)” value was “dramatic effect of reduced dissolution”.
In the case of `CC(=O)O[C@]1(C(C)=O)CC[C@H]2[C@@H]3C[C@H](C)C4=CC(=O)CC[C@]4(C)[C@H]3CC[C@@]21C` [medroxyprogesterone acetate], the “release from the sugar coating (in words)” value in series [2] is reported as “released from the sugar coating extremely rapidly”.
